Measurements as given in PMC11108815 (Heliyon, 2024).

What was measured:
[1] = rats, oral, 12.5 to 50 mg kg^−1; cited from earlier work
[2] = Pharmacokinetics in rat plasma; type: in vivo, Wistar rats; conditions: for AUC(0-t) / AUC(0-inf) / CL/F / Cmax / MRT last / MRT inf / half-life / Tmax: Wistar, rat, plasma, po, 100 mg/kg; for AUC(0-t): AUC0-t; for AUC(0-inf): AUC0-∞; for CL/F: CLz/F; for MRT last: MRT0-t; for MRT inf: MRT0-∞; for Cmax after modeling compared with control group: oral administration of FS
[3] = Stability test of QC samples; type: physicochemical, rat
[4] = FS-C: normal (blank) rats, oral FS 100 mg kg^−1, n = 6
[5] = FT-C: normal (blank) rats, oral FT 100 mg kg^−1, n = 6
[6] = T1/2, FS-C: normal (blank) rats, oral FS 100 mg kg^−1, n = 6
[7] = T1/2, FT-C: normal (blank) rats, oral FT 100 mg kg^−1, n = 6
[8] = control group, after oral administration of FS or FT
[9] = Store at 4 °C for 24 h, high concentration QC sample in rat plasma
[10] = Store at 4 °C for 24 h, low concentration QC sample in rat plasma
[11] = Store at 4 °C for 24 h, medium concentration QC sample in rat plasma
[12] = Store at room temperature for 12 h, high concentration QC sample in rat plasma
[13] = Store at room temperature for 12 h, low concentration QC sample in rat plasma
[14] = Store at room temperature for 12 h, medium concentration QC sample in rat plasma
[15] = Store at −20 °C for 20 days, high concentration QC sample in rat plasma
[16] = Store at −20 °C for 20 days, low concentration QC sample in rat plasma
[17] = Store at −20 °C for 20 days, medium concentration QC sample in rat plasma
[18] = Three freeze-thaw cycles, high concentration QC sample in rat plasma
[19] = Three freeze-thaw cycles, low concentration QC sample in rat plasma
[20] = Three freeze-thaw cycles, medium concentration QC sample in rat plasma

| AUC(0-t) [2, 4] | AUC(0-t) [2, 5] | AUC(0-inf) [2, 4] | AUC(0-inf) [2, 5] | CL/F [2, 4] | CL/F [2, 5] | Cmax [2, 4] | Cmax [2, 5] | MRT last [2, 4] | MRT last [2, 5] | MRT inf [2, 4] | MRT inf [2, 5] | half-life [2, 6] | half-life [2, 7] | Tmax [2, 4] | Tmax [2, 5] | Tmax [2, 8] | Cmax after modeling compared with control group [2] | Stability, Accuracy (RE, %) [3, 9] | Stability, Accuracy (RE, %) [3, 10] | Compound | also measured |
| --- | --- | --- | --- | --- | --- | --- | --- | --- | --- | --- | --- | --- | --- | --- | --- | --- | --- | --- | --- | --- | --- |
| 218 ± 14.9 ng·h/mL | 104 ± 17.2 ng·h/mL | 222 ± 20.6 ng·h/mL | 109 ± 28.6 ng·h/mL | 2060 mL/min/kg | 3430 mL/min/kg | 54.5 ± 5.34 ng/mL | 16.4 ± 4.28 ng/mL | 5.01 ± 0.38 h | 7.95 ± 1.33 h | 5.48 ± 1.41 h | 8.82 ± 3.43 h | 2.42 ± 2.5 h | 2.91 ± 3.72 h | 0.39 ± 0.09 h | 0.22 ± 0.09 h | < 0.39 h | increased | 5.57% | −6.18% | O=C(/C=C/c1ccc(O)c(O)c1)O[C@H](Cc1ccc(O)c(O)c1)C(=O)O [Rosmarinic acid] | pharmacokinetic characteristics [1]: fast absorption, moderate elimination and low absolute bioavailability; MRT0-t after oral FT compared with the FS group ([2]; both before and after modeling): increased; CLz/F in FT compared with FS ([2]; normal group, p < 0.01): higher; AUC0-t in FT compared with FS ([2]; normal group, p < 0.01, 0.05): significantly lower; AUC0-∞ in FT compared with FS ([2]; normal group, p < 0.01, 0.05): significantly lower; Cmax in FT compared with FS ([2]; normal group, p < 0.01, 0.05): significantly lower; Stability, Accuracy (RE, %) [3, 11]: 0.63%; Stability, Accuracy (RE, %) [3, 12]: −10.92%; Stability, Accuracy (RE, %) [3, 13]: −3.95%; Stability, Accuracy (RE, %) [3, 14]: −0.80%; Stability, Accuracy (RE, %) [3, 15]: 0.99%; Stability, Accuracy (RE, %) [3, 16]: 1.19%; Stability, Accuracy (RE, %) [3, 17]: 6.02%; Stability, Accuracy (RE, %) [3, 18]: −4.84%; Stability, Accuracy (RE, %) [3, 19]: 1.82%; Stability, Accuracy (RE, %) [3, 20]: −0.56% |
| 128 ± 40.5 ng·h/mL | 119 ± 48.8 ng·h/mL | 164 ± 85 ng·h/mL | 119 ± 48.9 ng·h/mL | 150 mL/min/kg | 289 mL/min/kg | 11.4 ± 1.33 ng/mL | 13.7 ± 2.76 ng/mL | 6.61 ± 1.61 h | 8.67 ± 3.71 h | 11.1 ± 10.8 h | 8.67 ± 3.71 h | 5.06 ± 8.9 h | 1.03 ± 0.45 h | 0.31 ± 0.16 h | 0.22 ± 0.13 h | < 0.39 h | increased | 7.65% | 6.82% | O=C(/C=C/c1ccc(O)c2c1[C@H](C(=O)O)[C@@H](c1ccc(O)c(O)c1)O2)O[C@H](Cc1ccc(O)c(O)c1)C(=O)O [Lithospermic acid] | AUC0-t in model group compared with control group ([2]; after modeling, p < 0.01, 0.05): significantly higher; shape of the drug-time curve ([2]; both the control and model groups treated with oral FS or FT): bimodal phenomenon; Stability, Accuracy (RE, %) [3, 11]: 6.58%; Stability, Accuracy (RE, %) [3, 12]: 11.92%; Stability, Accuracy (RE, %) [3, 13]: −5.80%; Stability, Accuracy (RE, %) [3, 14]: 0.69%; Stability, Accuracy (RE, %) [3, 15]: −0.73%; Stability, Accuracy (RE, %) [3, 16]: −8.45%; Stability, Accuracy (RE, %) [3, 17]: 0.15%; Stability, Accuracy (RE, %) [3, 18]: −10.67%; Stability, Accuracy (RE, %) [3, 19]: 6.56%; Stability, Accuracy (RE, %) [3, 20]: 9.01% |
